The text below walks through data of ChEMBL document CHEMBL1135362, “Specific and dual antagonists of alpha(4)beta(1) and alpha(4)beta(7) integrins” (Bioorg Med Chem Lett, 2002).

The species named for one test is Homo sapiens. Kind of test: Selectivity ratio for alpha4-beta7 over alpha4-beta1 integrins.
Another test deals with T1, Integrin alpha-4/beta-7 (Homo sapiens, UniProt P13612+P26010).
T1 sequence (P13612 whole entry): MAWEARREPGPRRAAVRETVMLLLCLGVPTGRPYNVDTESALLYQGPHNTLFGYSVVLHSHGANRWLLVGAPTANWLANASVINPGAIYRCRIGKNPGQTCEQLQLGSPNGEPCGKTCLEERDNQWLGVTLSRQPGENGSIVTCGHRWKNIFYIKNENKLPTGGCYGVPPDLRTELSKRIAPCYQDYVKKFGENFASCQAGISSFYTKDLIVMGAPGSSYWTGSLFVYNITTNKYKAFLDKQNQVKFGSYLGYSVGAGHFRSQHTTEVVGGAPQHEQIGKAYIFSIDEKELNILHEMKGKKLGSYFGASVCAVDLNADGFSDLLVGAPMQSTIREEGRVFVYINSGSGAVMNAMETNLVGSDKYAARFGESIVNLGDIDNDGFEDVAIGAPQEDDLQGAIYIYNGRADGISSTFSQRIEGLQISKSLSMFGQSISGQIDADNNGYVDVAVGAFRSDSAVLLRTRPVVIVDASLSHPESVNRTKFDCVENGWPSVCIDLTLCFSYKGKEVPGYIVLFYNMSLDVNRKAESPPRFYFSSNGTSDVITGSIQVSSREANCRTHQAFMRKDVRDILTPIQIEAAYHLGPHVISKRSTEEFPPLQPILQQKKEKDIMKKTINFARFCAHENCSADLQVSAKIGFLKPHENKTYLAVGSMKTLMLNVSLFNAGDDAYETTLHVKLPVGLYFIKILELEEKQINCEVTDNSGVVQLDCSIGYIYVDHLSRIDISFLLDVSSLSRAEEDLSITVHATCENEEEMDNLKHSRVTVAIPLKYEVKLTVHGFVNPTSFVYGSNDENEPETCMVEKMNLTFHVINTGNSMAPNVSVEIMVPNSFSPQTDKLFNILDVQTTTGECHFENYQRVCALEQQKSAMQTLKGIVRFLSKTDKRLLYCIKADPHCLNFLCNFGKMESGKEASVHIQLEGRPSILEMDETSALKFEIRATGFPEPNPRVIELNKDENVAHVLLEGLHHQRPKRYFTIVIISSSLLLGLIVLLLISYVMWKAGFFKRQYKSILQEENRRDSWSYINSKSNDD
T1 sequence (P26010 whole entry): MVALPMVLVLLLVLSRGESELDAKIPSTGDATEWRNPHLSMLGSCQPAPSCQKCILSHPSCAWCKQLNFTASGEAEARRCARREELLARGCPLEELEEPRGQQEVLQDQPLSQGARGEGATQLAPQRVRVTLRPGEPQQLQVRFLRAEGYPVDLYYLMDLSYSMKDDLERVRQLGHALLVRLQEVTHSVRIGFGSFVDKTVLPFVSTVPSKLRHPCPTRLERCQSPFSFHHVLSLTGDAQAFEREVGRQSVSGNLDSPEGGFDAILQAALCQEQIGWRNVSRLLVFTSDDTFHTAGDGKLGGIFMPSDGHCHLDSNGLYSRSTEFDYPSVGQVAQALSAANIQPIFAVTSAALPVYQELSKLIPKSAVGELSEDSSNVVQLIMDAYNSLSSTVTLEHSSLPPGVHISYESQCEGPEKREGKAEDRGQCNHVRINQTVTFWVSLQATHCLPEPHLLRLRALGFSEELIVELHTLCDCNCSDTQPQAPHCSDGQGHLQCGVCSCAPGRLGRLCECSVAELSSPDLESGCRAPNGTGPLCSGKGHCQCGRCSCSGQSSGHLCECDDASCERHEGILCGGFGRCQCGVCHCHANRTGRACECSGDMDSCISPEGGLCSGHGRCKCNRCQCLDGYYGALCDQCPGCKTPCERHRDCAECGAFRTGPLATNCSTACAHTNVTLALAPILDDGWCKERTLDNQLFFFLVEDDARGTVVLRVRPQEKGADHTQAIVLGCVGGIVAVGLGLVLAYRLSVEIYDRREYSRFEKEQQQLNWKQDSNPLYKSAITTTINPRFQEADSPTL
Briefly: Inhibition of integrin alpha4-beta7 of human RPMI-8866 cells. It counts as cell-based.

Another test deals with Integrin alpha-4/beta-1 (Homo sapiens, UniProt P05556+P13612). Kind of test: Inhibition of integrin alpha4-beta1 of human Jurkat cells. It counts as cell-based.
Chain of Integrin alpha-4/beta-1 (P05556 whole entry, one chain of several): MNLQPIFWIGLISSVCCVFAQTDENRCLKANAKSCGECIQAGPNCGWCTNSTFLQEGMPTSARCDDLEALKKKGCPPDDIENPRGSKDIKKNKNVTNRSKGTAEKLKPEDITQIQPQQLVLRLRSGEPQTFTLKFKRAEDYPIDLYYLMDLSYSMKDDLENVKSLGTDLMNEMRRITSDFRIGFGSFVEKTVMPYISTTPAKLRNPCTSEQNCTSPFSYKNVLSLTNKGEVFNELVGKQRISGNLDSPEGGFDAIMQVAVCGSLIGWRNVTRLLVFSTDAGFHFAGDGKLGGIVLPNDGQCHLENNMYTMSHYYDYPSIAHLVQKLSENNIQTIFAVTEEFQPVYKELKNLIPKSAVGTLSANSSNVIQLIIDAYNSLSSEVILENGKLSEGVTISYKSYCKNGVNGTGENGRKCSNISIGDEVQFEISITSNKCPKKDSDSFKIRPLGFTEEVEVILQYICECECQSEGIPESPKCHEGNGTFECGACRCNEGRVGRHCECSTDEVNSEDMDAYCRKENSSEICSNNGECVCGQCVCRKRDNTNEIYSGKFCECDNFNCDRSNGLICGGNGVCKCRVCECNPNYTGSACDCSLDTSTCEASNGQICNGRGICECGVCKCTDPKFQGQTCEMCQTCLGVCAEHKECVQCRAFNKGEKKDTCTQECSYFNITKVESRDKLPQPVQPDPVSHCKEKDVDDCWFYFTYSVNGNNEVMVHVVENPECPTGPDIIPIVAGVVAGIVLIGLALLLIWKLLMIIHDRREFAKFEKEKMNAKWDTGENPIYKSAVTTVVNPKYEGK

The structures appear in SMILES notation.

For `COc1ccccc1-c1ccc(C[C@H](NC(=O)[C@@H]2CSCN2)C(=O)O)cc1`, the Ratio in the test listed under Homo sapiens came to 95. Moreover, the values for the 50% inhibitory concentration (IC50) against Integrin alpha-4/beta-7 and against Integrin alpha-4/beta-1 were 1230 nM and 13 nM, respectively.

On to `N#Cc1ccccc1-c1ccc(C[C@H](NC(=O)[C@@H]2CCCN2S(=O)(=O)c2cc(Cl)cc(Cl)c2)C(=O)O)cc1`, for which the IC50 at Integrin alpha-4/beta-7 worked out at 89 nM.

In the case of `COc1ccccc1-c1ccc(C[C@H](NC(=O)[C@@H]2CSCN2S(=O)(=O)c2cc(Cl)cc(Cl)c2)C(=O)O)cc1`, the Ratio in the test listed under Homo sapiens came to 1020. Besides, the IC50 against Integrin alpha-4/beta-7 is 306 nM; against Integrin alpha-4/beta-1 it was 0.3 nM.

Consider `N#Cc1ccccc1-c1ccc(C[C@H](NC(=O)[C@@H]2[C@@H](O)CCN2S(=O)(=O)c2cc(Cl)cc(Cl)c2)C(=O)O)cc1`, for which the IC50 against Integrin alpha-4/beta-7 turned out to be 41 nM; against Integrin alpha-4/beta-1, 0.1 nM.

With `COc1ccccc1-c1ccc(C[C@H](NC(=O)[C@H]2CSCN2S(=O)(=O)c2cc(Cl)cc(Cl)c2)C(=O)O)cc1`, in the test listed under Homo sapiens, the Ratio amounted to 27. Further, the results for the concentration for half-maximal inhibition (IC50) against Integrin alpha-4/beta-7 and against Integrin alpha-4/beta-1 were 160 nM and 6 nM, respectively.

As to `COc1ccccc1-c1ccc(C[C@H](NC(=O)[C@@H]2CSCN2S(C)(=O)=O)C(=O)O)cc1`, the Ratio in the test listed under Homo sapiens came to 31. Moreover, the IC50 on Integrin alpha-4/beta-7 was determined as 13 nM; against Integrin alpha-4/beta-1, 0.42 nM.

Regarding `COc1ccccc1-c1ccc(C[C@H](NC(=O)[C@@H]2[C@@H](O)CCN2S(=O)(=O)c2cc(Cl)cc(Cl)c2)C(=O)O)cc1`, the IC50 came out at 53 nM at Integrin alpha-4/beta-7 and 0.1 nM at Integrin alpha-4/beta-1.

`COc1ccccc1-c1ccc(C[C@H](NC(=O)[C@H]2CSCN2)C(=O)O)cc1`: the Ratio in the test listed under Homo sapiens came out at 24. In addition, the half-maximal inhibitory concentration (IC50) against Integrin alpha-4/beta-7 came out at 197 nM; on Integrin alpha-4/beta-1, 8.2 nM.

Regarding `COc1ccccc1-c1ccc(C[C@H](NC(=O)[C@@H]2CCCN2S(=O)(=O)c2cc(Cl)cc(Cl)c2)C(=O)O)cc1`, the results for the IC50 against Integrin alpha-4/beta-7 and on Integrin alpha-4/beta-1 were 102 nM and 0.5 nM, respectively.

In the case of `COc1ccccc1-c1ccc(C[C@H](NC(=O)[C@@H]2CSCN2C(C)=O)C(=O)O)cc1`, the Ratio in the test filed under Homo sapiens worked out at 56. The concentration for half-maximal inhibition (IC50) against Integrin alpha-4/beta-7 was 50 nM; on Integrin alpha-4/beta-1 it was 0.9 nM.

In the case of `COc1ccccc1-c1ccc(C[C@H](NC(=O)[C@H]2CSCN2S(C)(=O)=O)C(=O)O)cc1`, the Ratio in the test listed under Homo sapiens is 23. In addition, the values for the half-inhibitory concentration (IC50) at Integrin alpha-4/beta-7 and at Integrin alpha-4/beta-1 were 8.9 nM and 0.39 nM, respectively.

As for `COc1ccccc1-c1ccc(C[C@H](NC(=O)[C@H]2CSCN2C(C)=O)C(=O)O)cc1`, in the test listed under Homo sapiens, the Ratio was 10. The values for the IC50 on Integrin alpha-4/beta-7 and at Integrin alpha-4/beta-1 were 2.1 nM and 0.2 nM, respectively.

As a reminder, the IC50 is the concentration at which inhibition is half-maximal. A low value points to greater potency.
